The test system of experiment [1] is PINK1^G309D mutant expressing cells. In words: Parkin S65 phosphorylation after CCCP, phospho specific antibodies after immuno-precipitating Parkin. Type of experiment: cell-based. As to conditions: S65 phosphosite. The protocol:
(§1) Parkin phosphorylation and mitochondrial translocation assay: HeLa cells were grown in DMEM supplemented with 10% FBS. Log phase cells were plated in 24 well plates with glass coverslips (Mattek) pretreated with fibronectin. Cells were pretreated with 50 μM of the indicated compound, followed by transfection with MitoGFP, mCherry Parkin, and full length PINK1FLAG3 in a 1:4:2 ratio using Fugene 6 (Promega). Fields of cells were selected by expression of MitoGFP (6 fields/well-3 wells/condition) and imaged at five-minute intervals following depolarization with 5 μM CCCP. Quantification was performed according to published protocols^3 and by creation of a Matlab based script.
To test the PINK1-dependency of our findings, we assayed PINK1 activity by using phospho specific antibodies raised against Parkin's PINK1-specific S65 phosphosite^21 after immuno-precipitating Parkin. […] To test whether kinetin stimulated Parkin localization was due to reversible binding of kinetin to PINK1, we treated the cells with fresh medium for 96 hours before performing a new recruitment assay. Similar recruitment rates were observed following the washout (FIG. 2F). […] We followed previously published methods to calculate the percentage of GFP labeled mitochondria with mCherryParkin associated. […]

For a further experiment, the system named is PINK1wt mice. In words: Heart stress model (trans-aortic banding, angiotensin II). The class given is in vivo. As to conditions: two weeks dosing, TAB or Angiotensin II; for pathological hypertrophy: 14 days. From the text:
Stress on the heart also induces pathological hypertrophy and increased apoptosis, and serves as a good model for heart disease. We utilized trans-aortic banding (TAB) and treatment with angiotensin II to increase pressure in the heart and a model for heart attack by induced myocardial infarction. We treated mice as above with kinetin as well as adenine and vehicle controls for two weeks. We then increased pressure in the heart by performing surgery to partially occlude the aorta (TAB) or sham operation. Additionally we directly injected of a bolus of Angiotensin II or saline into the heart (Billia et al., 2011) to increase blood pressure. […] As the depletion of PINK1 leads to more pathological hypertrophy and increased apoptosis, by amplifying PINK1 activity these characteristics of heart failure will be further reduced.

In the next experiment the test system is PINK1−/− mice. In words: Induced myocardial infarction model. The class given is in vivo. The protocol: Utilizing mice dosed with kinetin, adenine or vehicle for two weeks, we induced myocardial infarction by ligating the left anterior descending artery at the level of the left atrial appendage (Wang et al., 2006) or sham surgery. Following infarct for 24 or 72 hours, we sacrificed the mice and analyzed the heart by TUNEL staining as cardiomyocytes are susceptible to cell death following infarct. […] These experiments replicate our results in neurons in which kinetin treatment will block apoptosis in response to a number of cellular stressors.

A further experiment deals with PINK1^G309D (Homo sapiens, UniProt Q9BXM7, G309D). In words: Parkin mitochondrial translocation assay in HeLa cells after CCCP depolarization. Further details: transfection with MitoGFP, mCherry Parkin, and full length PINK1FLAG3 in a 1:4:2 ratio; expressed in transfected cells; host or cells: HeLa. As to conditions: for 50% Recruitment Times (R50) mCherry Parkin to depolarized mitochondria: HeLa cells with PINK1^G309D, mCherryParkin, mitoGFP, 48 hours, 25 μM; for delta co-localization: PINK1^G309D expressing cells, algorithm quantified. Type of experiment: cell-based. The protocol:
as §1
(§2) Our ability to enhance PINK1 activity in-vitro using KTP led us to investigate means by which to achieve enhanced activity in cells expressing PINK1. […] We treated cells with either kinetin or adenine (FIG. 2A) and measured Parkin localization following mitochondrial depolarization with CCCP (FIG. 2B). HeLa cells, which have low levels of endogenous PINK1 and PARKIN, were transfected with wildtype or PINK1^G309D, mCherryParkin, and mitoGFP. After 48 hours of incubation with 25 μM adenine, kinetin or equivalent DMSO, we imaged CCCP-mediated depolarization of mitochondria (FIGS. 2C, 2D) and calculated the percentage of GFP labelled mitochondria with mCherryParkin associated (FIG. 2E). In line with previous reports^3, transfection of PINK1^G309D slowed the 50% recruitment (R50) time of mCherryParkin to depolarized mitochondria (23±2 min vs 15±1 min R50) (FIGS. 2C-2E Table.2). […] Using an algorithm to accurately quantify the time dependent change in co-localization, we calculated that PINK1^wt expressing cells achieved a mean change in co-localization of 0.112 with DMSO or adenine and 0.13 with kinetin treatment (FIGS. 7A-7F); PINK1^G309D expressing cells treated with DMSO or adenine achieved delta co-localization of 0.076, but upon addition of kinetin returned to near-PINK1-wildtype levels (0.124).
(§3) To test the PINK1-dependency of our findings, we assayed PINK1 activity by using phospho specific antibodies raised against Parkin's PINK1-specific S65 phosphosite^21 after immuno-precipitating Parkin. […] To test whether kinetin stimulated Parkin localization was due to reversible binding of kinetin to PINK1, we treated the cells with fresh medium for 96 hours before performing a new recruitment assay. Similar recruitment rates were observed following the washout (FIG. 2F). […] We followed previously published methods to calculate the percentage of GFP labeled mitochondria with mCherryParkin associated. Transfection of G309DPINK11-581 slowed the rate of mCherryParkin recruitment (23+2 min vs 15+1 min R50) as per reported results. The addition of kinetin, but not adenine, increased the rate of mCherryParkin recruitment in wt cells from 15+1 to 10+2 min and G309D cells from 23+2 to 15+2 min. We then incubated the cells with kinetin for 2 days, washed the cells with fresh medium then performed the recruitment assay and saw the same increase in the rate of recruitment. […] We developed an algorithm to calculate the change in co-localization. The wtPINK1 cells achieved a mean change in co-localization of 0.11 with DMSO, adenine or kinetin treatment. G309DPINK1 expressing cells treated with DMSO or Adenine, achieved delta co-localization of 0.075 but upon addition of kinetin indicating rescue to the wt level (0.11) (P>0.05).

The next experiment has as its target PINK1^wt (Homo sapiens, UniProt Q9BXM7). The experiment is described as above. The class given is cell-based. Further details: transfection with MitoGFP, mCherry Parkin, and full length PINK1FLAG3 in a 1:4:2 ratio; expressed in transfected cells; host or cells: HeLa. As to conditions: for 50% Recruitment Times (R50) mCherry Parkin to depolarized mitochondria: HeLa cells with PINK1^wt, mCherryParkin, mitoGFP, 48 hours, 25 μM; for mean change in co-localization: PINK1^wt expressing cells, algorithm quantified. On the procedure:
as §1, §2, §3

Where “and” joins values, the source holds several entries; their conditions need not be identical. Equal values may be shown once. Entries after “also recorded” stand apart in the source; their conditions may differ.

Chain of PINK1^G309D (Q9BXM7 78-581 G309D): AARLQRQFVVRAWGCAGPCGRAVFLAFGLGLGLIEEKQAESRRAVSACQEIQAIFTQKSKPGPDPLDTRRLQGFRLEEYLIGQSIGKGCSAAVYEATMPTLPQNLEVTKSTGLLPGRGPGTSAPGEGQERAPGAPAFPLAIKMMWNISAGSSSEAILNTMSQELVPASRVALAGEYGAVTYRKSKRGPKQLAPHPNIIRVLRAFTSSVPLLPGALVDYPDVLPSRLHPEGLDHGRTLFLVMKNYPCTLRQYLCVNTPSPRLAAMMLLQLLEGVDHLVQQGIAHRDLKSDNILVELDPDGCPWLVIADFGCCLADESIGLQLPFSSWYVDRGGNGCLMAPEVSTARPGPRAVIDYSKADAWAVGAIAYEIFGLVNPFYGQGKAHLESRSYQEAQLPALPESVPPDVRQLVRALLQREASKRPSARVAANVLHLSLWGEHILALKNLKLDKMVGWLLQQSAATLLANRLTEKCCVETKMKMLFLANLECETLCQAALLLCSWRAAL
Chain of PINK1^wt (Q9BXM7 78-581): as the sequence (Q9BXM7 78-581 G309D) above, with D232G counted along it

Regarding `Nc1ncnc2nc[nH]c12` [adenine, reference compound], the “phosphorylation levels of Parkin” value in experiment [1] is “not”. The pathological hypertrophy entry in the experiment with PINK1wt mice was “not”. The “scar size and level of collagen deposition” value in the experiment with PINK1−/− mice is on record as “not”. For the same molecule, at PINK1^G309D, the “50% Recruitment Times (R50) mCherry Parkin to depolarized mitochondria” value (from here on “50% Recruitment Times”) turned out to be 23 ± 2 min and the delta co-localization amounted to 0.076. The delta co-localization on PINK1^G309D (listed as Adenine) worked out at 0.075. At PINK1^wt, the “50% Recruitment Times” value is on record as 15 ± 1 min; the “mean change in co-localization” value was 0.112 and 0.11.
In the case of `c1coc(CNc2ncnc3[nH]cnc23)c1` [kinetin], in experiment [1], the “phosphorylation levels of Parkin” value was “significantly increased; also recorded: Robust increase”. Also, in the experiment with PINK1wt mice, the “total number of TUNEL positive cells, left ventricle” value is listed as “reduced the total number of TUNEL positive cells” and the pathological hypertrophy result is listed as “reduces the pathological hypertrophy”. The “scar size and level of collagen deposition” value with PINK1−/− mice was “not”. Also, at PINK1^G309D, the “50% Recruitment Times” value was 15±2 min and 15+2 min; the delta co-localization is 0.124 and 0.11. Besides, on PINK1^wt, the “50% Recruitment Times” value is 10±2 min and 10+2 min; the “mean change in co-localization” value was 0.13 and 0.11.

The record behind these values is patent US11427588B2, “Compositions and methods for treating neurodegenerative diseases and cardiomyopathy” (THE REGENTS OF THE UNIVERSITY OF CALIFORNIA, priority 2013, dated 2022).
